In PubChem BioAssay (NCI):
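A five-concentration, 48-hour dose response in 96-well plates underlies each endpoint, interpolated linearly between surrounding concentrations. GI50 = concentration required for 50% inhibition of growth. At the TGI there is no net growth.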

Assays:
Assay in all cases: NCI-60 cell line screen, 48 h
[1] = test system: 786-0 renal
[2] = test system: A498 renal
[3] = test system: A549 NSCLC
[4] = test system: ACHN renal
[5] = test system: BT-549 breast
[6] = test system: CAKI-1 renal
[7] = test system: CCRF-CEM leukemia
[8] = test system: COLO 205 colon
[9] = test system: DU-145 prostate
[10] = test system: EKVX NSCLC
[11] = test system: HCC-2998 colon
[12] = test system: HCT-116 colon
[13] = test system: HCT-15 colon
[14] = test system: HL-60(TB) leukemia
[15] = test system: HOP-62 NSCLC
[16] = test system: HOP-92 NSCLC
[17] = test system: HS 578T breast
[18] = test system: HT29 colon
[19] = test system: IGROV1 ovarian
[20] = test system: K-562 leukemia
[21] = test system: KM12 colon
[22] = test system: LOX IMVI melanoma
[23] = test system: M14 melanoma
[24] = test system: MALME-3M melanoma
[25] = test system: MCF7 breast
[26] = test system: MDA-MB-231 breast
[27] = test system: MDA-MB-435
[28] = test system: MOLT-4 leukemia
[29] = test system: NCI-H226 lung
[30] = test system: NCI-H23 lung
[31] = test system: NCI-H460 lung
[32] = test system: NCI-H522 lung
[33] = test system: NCI/ADR-RES ovarian
[34] = test system: OVCAR-3 ovarian
[35] = test system: OVCAR-4 ovarian
[36] = test system: OVCAR-5 ovarian
[37] = test system: OVCAR-8 ovarian
[38] = test system: PC-3 prostate
[39] = test system: RPMI-8226 leukemia
[40] = test system: RXF 393 renal
[41] = test system: SF-268 CNS
[42] = test system: SF-295 CNS
[43] = test system: SF-539 CNS
[44] = test system: SK-MEL-2 melanoma
[45] = test system: SK-MEL-28 melanoma
[46] = test system: SK-MEL-5 melanoma
[47] = test system: SK-OV-3 ovarian
[48] = test system: SN12C renal
[49] = test system: SNB-19 CNS
[50] = test system: SNB-75 CNS
[51] = test system: SR leukemia
[52] = test system: SW-620 colon
[53] = test system: TK-10 renal
[54] = test system: U251 CNS
[55] = test system: UACC-257 melanoma
[56] = test system: UACC-62 melanoma
[57] = test system: UO-31 renal
[58] = test system: T-47D breast

## [O]=[Sn]([CH]1CCCCC1)[CH]1CCCCC1
[1]
  GI50: 214 nM
  TGI: 456 nM
[2]
  GI50: 167 nM
  TGI: 451 nM
[3]
  GI50: 1400 nM
  TGI: 2890 nM
[4]
  GI50: 309 nM
  TGI: 1120 nM
[5]
  GI50: 229 nM
  TGI: 588 nM
[6]
  GI50: 145 nM
  TGI: 341 nM
[7]
  GI50: 48.8 nM
  TGI: 774 nM
[8]
  GI50: 249 nM
  TGI: 731 nM
[9]
  GI50: 259 nM
  TGI: 839 nM
[10]
  GI50: 225 nM
  TGI: 1200 nM
[11]
  GI50: 245 nM
  TGI: 693 nM
[12]
  GI50: 152 nM
  TGI: 320 nM
[13]
  GI50: 197 nM
  TGI: 691 nM
[14]
  GI50: 248 nM
  TGI: 1550 nM
[15]
  GI50: 407 nM
  TGI: 1540 nM
[16]
  GI50: 251 nM
  TGI: 1200 nM
[17]
  GI50: 266 nM
  TGI: 1520 nM
[18]
  GI50: 298 nM
  TGI: 866 nM
[19]
  GI50: 274 nM
  TGI: 915 nM
[20]
  GI50: 117 nM
[21]
  GI50: 341 nM
  TGI: 1250 nM
[22]
  GI50: 123 nM
  TGI: 297 nM
[23]
  GI50: 239 nM
  TGI: 677 nM
[24]
  GI50: 173 nM
  TGI: 555 nM
[25]
  GI50: 84.9 nM
[26]
  GI50: 280 nM
  TGI: 1040 nM
[27]
  GI50: 218 nM
  TGI: 833 nM
[28]
  GI50: 273 nM
[29]
  GI50: 229 nM
  TGI: 657 nM
[30]
  GI50: 198 nM
  TGI: 591 nM
[31]
  GI50: 389 nM
  TGI: 1430 nM
[32]
  GI50: 71.1 nM
  TGI: 217 nM
[33]
  GI50: 357 nM
  TGI: 1630 nM
[34]
  GI50: 203 nM
  TGI: 549 nM
[35]
  GI50: 342 nM
  TGI: 1460 nM
[36]
  GI50: 620 nM
  TGI: 1710 nM
[37]
  GI50: 298 nM
  TGI: 1170 nM
[38]
  GI50: 517 nM
  TGI: 1940 nM
[39]
  GI50: 188 nM
  TGI: 718 nM
[40]
  GI50: 96.2 nM
  TGI: 241 nM
[41]
  GI50: 214 nM
  TGI: 654 nM
[42]
  GI50: 319 nM
  TGI: 1350 nM
[43]
  GI50: 240 nM
  TGI: 710 nM
[44]
  GI50: 108 nM
  TGI: 284 nM
[45]
  GI50: 279 nM
  TGI: 1140 nM
[46]
  GI50: 259 nM
  TGI: 1140 nM
[47]
  GI50: 1200 nM
  TGI: 2520 nM
[48]
  GI50: 315 nM
  TGI: 1230 nM
[49]
  GI50: 271 nM
  TGI: 950 nM
[50]
  GI50: 158 nM
  TGI: 562 nM
[51]
  GI50: 312 nM
  TGI: 1710 nM
[52]
  GI50: 93.4 nM
  TGI: 238 nM
[53]
  GI50: 267 nM
  TGI: 1140 nM
[54]
  GI50: 51.4 nM
  TGI: 200 nM
[55]
  GI50: 133 nM
  TGI: 384 nM
[56]
  GI50: 208 nM
  TGI: 743 nM
[57]
  GI50: 293 nM
  TGI: 1080 nM

## Cc1ccc(S(=O)(=O)OC[C@@]2(C)CC[C@]3(C)CC[C@]4(C)C(=C3C2)C=C[C@@H]2[C@@]3(C)CCCNC(C)(C)[C@@H]3CC[C@]24C)cc1
[2]
  GI50: 1710 nM
  TGI: 3130 nM
[4]
  GI50: 1720 nM
  TGI: 3100 nM
[6]
  GI50: 1610 nM
  TGI: 3060 nM
[7]
  GI50: 2140 nM
  TGI: 6060 nM
[9]
  GI50: 1810 nM
  TGI: 3400 nM
[10]
  GI50: 1700 nM
  TGI: 3290 nM
[16]
  GI50: 1450 nM
  TGI: 2970 nM
[17]
  GI50: 1940 nM
  TGI: 4260 nM
[21]
  GI50: 1860 nM
  TGI: 3570 nM
[24]
  GI50: 1680 nM
  TGI: 3260 nM
[27]
  GI50: 1640 nM
  TGI: 3070 nM
[30]
  GI50: 1820 nM
  TGI: 3420 nM
[32]
  GI50: 1700 nM
  TGI: 3360 nM
[33]
  GI50: 2050 nM
  TGI: 4590 nM
[35]
  GI50: 1660 nM
  TGI: 3160 nM
[36]
  GI50: 1770 nM
  TGI: 3210 nM
[38]
  GI50: 1530 nM
  TGI: 2980 nM
[39]
  GI50: 2120 nM
  TGI: 4630 nM
[40]
  GI50: 1350 nM
  TGI: 2860 nM
[41]
  GI50: 1950 nM
  TGI: 4120 nM
[42]
  GI50: 1780 nM
  TGI: 3290 nM
[43]
  GI50: 1710 nM
  TGI: 3110 nM
[44]
  GI50: 1880 nM
  TGI: 3520 nM
[45]
  GI50: 1780 nM
  TGI: 3260 nM
[47]
  GI50: 1790 nM
  TGI: 3250 nM
[50]
  GI50: 1610 nM
  TGI: 3100 nM
[52]
  GI50: 1780 nM
  TGI: 3540 nM
[58]
  GI50: 1550 nM
  TGI: 3260 nM
[53]
  GI50: 1880 nM
  TGI: 3590 nM
[54]
  GI50: 1660 nM
  TGI: 3170 nM
[57]
  GI50: 1460 nM
  TGI: 2850 nM
